In assay [1] the target is T1, full length Keap1 protein / full length NRF2 protein (Homo sapiens, UniProt Q14145).
T1 construct: full length NRF2 protein and full length Keap1 protein (Keap1 exists a dimer) are used; His
Description: NRF2-Keap1 TR-FRET Low Protein Assay. Format: binding. Conditions: 1.25 nM Keap1 FlagHis and 2.5 nM biotin-NRF2 added. The text has this:
NRF2-Keap1 TR-FRET Low Protein Assay In the NRF2-Keap1 TR-FRET (time-resolved fluorescence resonance energy transfer) low protein assay, full length NRF2 protein and full length Keap1 protein (Keap1 exists a dimer) are used. The assay detects a compound's ability to displace the binding of Keap1 […] with biotinylated Avi-NRF2 protein. Biotin-NRF2 binds to streptavidin-europium (a component of the detection mix) and Keap1 […] is recognized by anti-Flag APC (allophycocyanin) antibody (also a component of the detection mix). If binding occurs between the two proteins, there will be an energy transfer from the Eu+3 (donor) at 615 nm to the APC (acceptor) at 665 nm. A potential NRF2 inhibitor will cause a reduction in the TR-FRET signal by interfering with the binding of Keap1 to NRF2. Ten nanoliters of 100× compound dose response curves (serial 3-fold dilutions) in DMSO are stamped using an Echo liquid handling system (Labcyte) into 384-well, low volume, black assay plates (Greiner, #784076), with DMSO in columns 6 and 18. An additional 90 nl DMSO is added to each well, to bring the total volume to 100 nl per well. The top concentration of compound is located in columns 1 and 13, with the serial dilutions going across the row. All reagents are diluted in assay buffer (50 mM Tris, pH 8.0, 5 mM MgCl2, 100 mM NaCl, 0.005% BSA, 1 mM DTT, and 2 mM CHAPS. The BSA, DTT, and CHAPS are added to the assay buffer on the day of assay. […] Wells in column 18 receive 5 ul of assay buffer instead. Plates are centrifuged at 500 rpm for 1 minute, covered with a plate lid, and incubated at 37° C. for 2.25 hours. Plates are then removed from the incubator and allowed to cool to RT for 15 minutes. Five microliters of 2.5 nM biotin-NRF2 protein is then added to all wells of the plates and the plates are spun at 500 rpm for 1 minute, followed by incubating at 4° C. for 1.25 hours. The plates are then allowed to warm to RT for 15 minutes, followed by the addition of 10 ul of detection mix (1 nM Streptavidin Eu+W1024 and 5 ug/ml mouse anti-DYKDDDDK IgG conjugated to SureLight APC antibody; both from Columbia Biosciences) to all wells. Plates are spun at 500 rpm for 1 minute, incubated for 1 hour at RT, and read on an Envision plate reader using a 320 nm excitation filter and 615 nm and 665 nm emission filters. […] Data analysis is handled using the software package Abase XE (Surrey, United Kingdom). […] For calculation of pIC50s, Abase XE uses a four parameter equation. pIC50 is the negative log of the IC50.
A general note: In TR-FRET formats the signal depends on donor and acceptor labels being close together.

The subject of assay [2] is NQO1 specific enzyme activity in BEAS-2B cells (marker for NRF2 activation). Description: BEAS-2B NQO1 MTT Assay. Type of assay: cell-based. The settings on record: Homo sapiens, compound incubated 48 hours, read-out: EC50 (NQO1 specific enzyme activity induction). In a few lines: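 NQO1 specific activity induction is derived from the rate of MTT reduction (ΔOD/min, 570 nm, 30 min kinetic read) in crude lysates of BEAS-2B cells exposed to compound for 48 h. A 3-parameter fit gives EC50, reported as pEC50; part of each lysate goes to Cell Titer Glo.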

For assay [3], the target named is T2, Keap1 Kelch domain (321-609) / TAMRA-labeled 16mer NRF2 peptide (ETGE motif) (Homo sapiens, UniProt Q14145).
T2 construct: the Kelch domain (321-609) of Keap1 is used
Description: NRF2-Keap1 FP Assay (Keap1 Kelch fluorescence polarization). Type of assay: binding. Conditions: 20 nM Keap1 (321-609), 8 nM Tamra labeled peptide. In a few lines: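 Compound dilutions (3-fold) were incubated 1 hr at room temperature with 20 nM Keap1 Kelch (321-609) and 8 nM TAMRA-labeled ETGE 16mer peptide. Buffer was 50 mM Tris pH 8.0, 100 mM NaCl, 5 mM MgCl2, 1 mM DTT, 2 mM CHAPS, 0.005% BSA. Fluorescence polarization (mP) was normalized to controls and fitted with a four-parameter equation to give pIC50.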
Background: Fluorescence polarisation rises when a labelled molecule tumbles more slowly, as on binding a larger partner.

Structures are written as SMILES. Read-outs that look alike come from different tables or passages of the source.

T2 sequence (Q14145 321-609): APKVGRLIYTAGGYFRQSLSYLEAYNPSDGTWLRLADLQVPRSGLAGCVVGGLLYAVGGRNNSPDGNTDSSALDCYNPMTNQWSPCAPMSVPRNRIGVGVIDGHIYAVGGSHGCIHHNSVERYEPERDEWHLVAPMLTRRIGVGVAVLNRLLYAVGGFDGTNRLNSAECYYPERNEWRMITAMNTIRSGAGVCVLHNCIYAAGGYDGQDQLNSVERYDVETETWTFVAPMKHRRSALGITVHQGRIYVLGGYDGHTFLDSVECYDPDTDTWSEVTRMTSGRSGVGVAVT
T1 sequence (Q14145 whole entry): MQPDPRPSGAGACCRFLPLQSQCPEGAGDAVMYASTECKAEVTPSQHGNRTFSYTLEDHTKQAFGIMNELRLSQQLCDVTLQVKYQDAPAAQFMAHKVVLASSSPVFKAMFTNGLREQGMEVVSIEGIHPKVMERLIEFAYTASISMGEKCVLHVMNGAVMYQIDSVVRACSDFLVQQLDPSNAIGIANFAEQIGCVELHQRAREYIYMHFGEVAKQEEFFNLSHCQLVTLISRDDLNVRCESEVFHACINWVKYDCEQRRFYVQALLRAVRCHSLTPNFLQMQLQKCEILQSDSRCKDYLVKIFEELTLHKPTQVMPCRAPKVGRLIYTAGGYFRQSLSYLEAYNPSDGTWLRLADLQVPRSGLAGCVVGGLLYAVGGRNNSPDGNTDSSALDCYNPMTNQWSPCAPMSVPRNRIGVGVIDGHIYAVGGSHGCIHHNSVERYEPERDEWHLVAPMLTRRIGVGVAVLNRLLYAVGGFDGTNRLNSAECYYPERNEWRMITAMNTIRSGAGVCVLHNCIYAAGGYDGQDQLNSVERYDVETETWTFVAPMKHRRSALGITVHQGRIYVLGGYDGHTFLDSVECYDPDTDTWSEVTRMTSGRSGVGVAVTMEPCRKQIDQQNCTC

What is called IC50 is the concentration needed to halve the response being measured. Low readings indicate higher potency, high ones lower potency. The EC50 is the concentration giving half of the maximal effect. In the case of `C[C@H](Oc1cccc(-c2cccc(-n3ncc(C(=O)O)c3[C@@H]3C[C@H]3c3cn(Cc4ccccc4)nn3)c2)c1)C1CCCCC1` (racemic) [Example 87, 5-(trans-2-(1-Benzyl-1H-1,2,3-triazol-4-yl)cyclopropyl)-1-(3′-((S)-1-cyclohexylethoxy)-[1,1′-biphenyl]-3-yl)-1H-pyrazole-4-carboxylic Acid], the IC50 in assay [1] and in assay [3] was 100 to 1000 nM throughout. Also, the EC50 in assay [2] is 10 to 100 nM.

For `C[C@@H](Oc1cccc(-c2cccc(-n3ncc(C(=O)O)c3[C@@H]3C[C@H]3c3cn(C)nn3)c2)c1)C1CCCCC1` [Example 162, 1-(3′-((R)-1-Cyclohexylethoxy)-[1,1′-biphenyl]-3-yl)-5-((1R,2R)-2-(1-methyl-1H-1,2,3-triazol-4-yl)cyclopropyl)-1H-pyrazole-4-carboxylic Acid], the half-maximal inhibitory concentration (IC50) in assay [1] lay within 10 to 100 nM; in assay [3], 100 to 1000 nM. Moreover, the EC50 in assay [2] (BEAS-2B, 48 h) lay in the range of 10 to 100 nM.

On to `C[C@H](Oc1cccc(-c2cccc(-n3ncc(C(=O)OC4CCOC4=O)c3[C@@H]3C[C@H]3c3cn(C)nn3)c2)c1)C1CCCCC1` (stereo partly drawn) [Example 106, 2-Oxotetrahydrofuran-3-yl 1-(3′-((S)-1-cyclohexylethoxy)-[1,1′-biphenyl]-3-yl)-5-((1R,2R)-2-(1-methyl-1H-1,2,3-triazol-4-yl)cyclopropyl)-1H-pyrazole-4-carboxylate], for which the results for the half-inhibitory concentration (IC50) in assay [1] and in assay [3] were 1000 to 10000 nM and greater than 10000 nM, respectively. In assay [2], the EC50 is 100 to 1000 nM.

Consider `C[C@H](Oc1cccc(-c2cccc(-n3ncc(C(=O)O)c3[C@@H]3C[C@H]3c3cn(C)nn3)c2)c1)C1CCCCC1` [Example 64, 1-(3′-((S)-1-Cyclohexylethoxy)-[1,1′-biphenyl]-3-yl)-5-((1R,2R)-2-(1-methyl-1H-1,2,3-triazol-4-yl)cyclopropyl)-1H-pyrazole-4-carboxylic Acid], for which the values for the half-inhibitory concentration (IC50) in assay [1] and in assay [3] were less than 10 nM and 10 to 100 nM, respectively. In addition, the EC50 in assay [2] (BEAS-2B, 48 h) was 10 to 100 nM.

For `C[C@H](Oc1cccc(-c2cccc(-n3ncc(C(=O)O)c3[C@@H]3C[C@H]3c3cn(C)nn3)c2)c1)C1CCCCC1` [Example 70, Calcium 1-(3′-((S)-1-Cyclohexylethoxy)-[1,1′-biphenyl]-3-yl)-5-((1R,2R)-2-(1-methyl-1H-1,2,3-triazol-4-yl)cyclopropyl)-1H-pyrazole-4-carboxylate Hydroxide], the IC50 in assay [1] is less than 10 nM; in assay [3], 10 to 100 nM. Moreover, in assay [2], the EC50 was less than 1 nM.

Take `C[C@H]1Cc2ccccc2S(=O)(=O)N(Cc2cccc(-c3cccc(-n4ncc(C(=O)O)c4[C@H]4C[C@@H]4c4cn(C)nn4)c3)c2)C1` [Example 133, 1-(3′-(((S)-4-methyl-1,1-dioxido-4,5-dihydrobenzo[f][1,2]thiazepin-2(3H)-yl)methyl)-[1,1′ biphenyl]-3-yl)-5-((1S,2S)-2-(1-methyl-1H-1,2,3-triazol-4-yl)cyclopropyl)-1H-pyrazole-4-carboxylic acid]: the half-inhibitory concentration (IC50) in assay [1] is 10 to 100 nM; in assay [3], 100 to 1000 nM. In assay [2], the EC50 fell in the range of 1000 to 10000 nM.

With `Cn1cc([C@@H]2C[C@H]2c2c(C(=O)O)cnn2-c2cccc(-c3cccc(CN4Cc5ccccc5CC(C)(C)C4)c3)c2)nn1` (racemic) [Example 126, 1-(3′-((4,4-dimethyl-4,5-dihydro-1H-benzo[c]azepin-2(3H)-yl)methyl)-[1,1′-biphenyl]-3-yl)-5-((1,2-trans)-2-(1-methyl-1H-1,2,3-triazol-4-yl)cyclopropyl)-1H-pyrazole-4-carboxylic Acid], the half-maximal inhibitory concentration (IC50) in assay [1] and in assay [3] was 100 to 1000 nM each time. Besides, in assay [2], the EC50 lay within 100 to 1000 nM.

`C[C@H](Oc1cccc(-c2cccc(-n3ncc(C(=O)O)c3[C@H]3C[C@@H]3c3cn(C4CCOCC4)nn3)c2)c1)C1CCCCC1` [Example 96]: the results for the half-inhibitory concentration (IC50) in assay [1] and in assay [3] were 100 to 1000 nM and 1000 to 10000 nM, respectively. In assay [2], the 50% effective concentration (EC50) lay within 100 to 1000 nM.

Regarding `C[C@H](Oc1cccc(-c2cccc(-n3ncc(C(=O)O)c3[C@@H]3C[C@H]3c3cn(-c4ccccc4)nn3)c2)c1)C1CCCCC1` (racemic) [Example 92], the half-inhibitory concentration (IC50) in assay [1] fell in the range of 100 to 1000 nM; in assay [3], 10 to 100 nM. Further, in assay [2], the EC50 lay within 1 to 10 nM.

Consider `C[C@H](Oc1cccc(-c2cccc(-n3ncc(C(=O)O)c3[C@H]3C[C@H]3c3cn(C)nn3)c2)c1)C1CCCCC1` (racemic) [Example 101, 1-(3′-((S)-1-cyclohexylethoxy)-[1,1′-biphenyl]-3-yl)-5-(cis-2-(1-methyl-1H-1,2,3-triazol-4-yl)cyclopropyl)-1H-pyrazole-4-carboxylic Acid], for which the concentration for half-maximal inhibition (IC50) was 1000 to 10000 nM in assay [1] and greater than 10000 nM in assay [3]. For the same molecule, the concentration for a half-maximal effect (EC50) in assay [2] (BEAS-2B, 48 h) lay within 100 to 1000 nM.

In the case of `C[C@H](Oc1cccc(-c2cccc(-n3ncc(C(=O)OCOC(=O)OC(C)(C)C)c3[C@@H]3C[C@H]3c3cn(C)nn3)c2)c1)C1CCCCC1` [Example 112, ((tert-Butoxycarbonyl)oxy)methyl 1-(3′-((S)-1-cyclohexylethoxy)-[1,1′-biphenyl]-3-yl)-5-((1R,2R)-2-(1-methyl-1H-1,2,3-triazol-4-yl)cyclopropyl)-1H-pyrazole-4-carboxylate], the figures for the 50% inhibitory concentration (IC50) in assay [1] and in assay [3] were 100 to 1000 nM and greater than 10000 nM, respectively. Further, in assay [2], the half-maximal effective concentration (EC50) was in the range of 1 to 10 nM.

As to `CCC(Oc1cccc(-c2cccc(-n3ncc(C(=O)O)c3[C@H]3C[C@@H]3c3cn(C)nn3)c2)c1)C1CCCCC1` (mixture of isomers) [Example 242], the 50% inhibitory concentration (IC50) in assay [1] and in assay [3] was 10 to 100 nM in each case. Further, the EC50 in assay [2] lay in the range of 10 to 100 nM.

Regarding `Cn1cc(C2CC2c2c(C(=O)O)cnn2-c2cccc(-c3cccc(OCCC4CCCCC4)c3)c2)nn1` (stereo not drawn) [Example 170, 1-(3′-(2-Cyclohexylethoxy)-[1,1′-biphenyl]-3-yl)-5-(2-(1-methyl-1H-1,2,3-triazol-4-yl)cyclopropyl)-1H-pyrazole-4-carboxylic acid], the IC50 in assay [1] and in assay [3] was 10 to 100 nM each time. Besides, in assay [2], the EC50 lay in the range of 100 to 1000 nM.

As to `C[C@H](Oc1cccc(-c2cccc(-n3ncc(C(=O)OCCN4CCOCC4)c3[C@@H]3C[C@H]3c3cn(C)nn3)c2)c1)C1CCCCC1` [Example 108, 2-Morpholinoethyl 1-(3′-((S)-1-cyclohexylethoxy)-[1,1′-biphenyl]-3-yl)-5-((1R,2R)-2-(1-methyl-1H-1,2,3-triazol-4-yl)cyclopropyl)-1H-pyrazole-4-carboxylate], the results for the IC50 in assay [1] and in assay [3] were 1000 to 10000 nM and greater than 10000 nM, respectively. Also, the concentration for a half-maximal effect (EC50) in assay [2] was in the range of 10 to 100 nM.

Take `CCn1cc([C@H]2C[C@@H]2c2c(C(=O)O)cnn2-c2cc(OC)cc(-c3cccc(OC(C)C4CCCCC4)c3)c2)nn1` (stereo partly drawn) [Example 193, 1-(3′-(1-cyclohexylethoxy)-5-methoxy-[1,1′-biphenyl]-3-yl)-5-((1S,2S)-2-(1-ethyl-1H-1,2,3-triazol-4-yl)cyclopropyl)-1H-pyrazole-4-carboxylic acid]: the concentration for half-maximal inhibition (IC50) in assay [1] and in assay [3] was 100 to 1000 nM throughout. For the same molecule, the EC50 in assay [2] lay within 100 to 1000 nM.

For the molecule `Cn1cc([C@@H]2C[C@H]2c2c(C(=O)O)cnn2-c2cccc(-c3cccc(CCC4CCCCC4)c3)c2)nn1` (racemic) [Example 114, rac-1-(3′-(2-Cyclohexylethyl)-[1,1′-biphenyl]-3-yl)-5-(-2-(1-methyl-1H-1,2,3-triazol-4-yl)cyclopropyl)-1H-pyrazole-4-carboxylic Acid], the 50% inhibitory concentration (IC50) in assay [1] was in the range of 10 to 100 nM; in assay [3], 100 to 1000 nM. Moreover, the EC50 in assay [2] was 10 to 100 nM.

Source of the values: patent US10364256B2 (GlaxoSmithKline Intellectual Property Development Limited, priority 2015, dated 2019).
